Data as given in paper PMC8277133, “Os(II)-Bridged Polyarginine Conjugates: The Additive Effects of Peptides in Promoting or Preventing Permeation in Cells and Multicellular Tumor Spheroids” (Inorganic Chemistry, 2021).
Where a SMILES comes first, the peptide text is derived from it. [ ]: non-standard residue; d: D form. The star is where a group is joined. X1 = O=C(c1ccc(-c2cc(-c3ccccn3)nc(-c3ccccn3)c2)cc1)*; Ahx = NCCCCCC(=O)O

Legend:
HPAC spheroids [1] = assay: Confocal imaging of penetration into live HPAC multicellular tumor spheroids; type: cell-based, human; conditions: for Spheroid penetration / accumulation: 100 μM, 48 h, confocal microscopy, no permeant
Procedure: The human pancreatic cancer cell line (HPAC) was cultured in Gibco Roswell Park Memorial Institute medium supplemented with 5% FBS at 37 °C with 5% CO2. HPAC cells were seeded at 2.5 × 10^3 cells/well of 96-well round-bottom plates pre-coated with poly-Hema (poly-2-hydroxyethyl methacrylate, Sigma). Cells were allowed to be compact and form 3D spheroid structures after 72 h.
Spheroids were treated with [Os-(R4)2]^10+ at 30 μM for 24 h and 100 μM for 24 and 48 h. Control spheroids were treated with the parent complex [Os(tpybenzCOOH)2]^2+ and [Os-(R8)2]^18+ at 100 μM for 48 h. Non-treated spheroids were also prepared as a negative control. Spheroids were co-stained with DAPI at 10 μM for 90 min. Each spheroid was collected individually and embedded in collagen in eight-well chamber slides, incubated for 90 min, and observed under confocal microscopy.
For imaging, HPAC spheroids were plated in collagen-treated eight-well chamber slides. HPAC spheroids were directly imaged from the eight-well chamber using a Leica TSP DMi8 confocal microscope (10× dry and 40× oil immersion objective). Z-scanning was used to acquire images across the z-axis of the spheroid sample. On average, 45–50 images were acquired at approximately 5 μm apart. 3D Z-stack images were used for spheroid reconstructions and 2D projection images are also reported. The Os(II) parent complex and bioconjugates were excited using a 490 nm white light laser, and the emission range was set to be between 650 and 800 nm (a false red color was used for the Os(II) channel). DAPI was excited at 405 nm, and emission was collected between 423 and 580 nm.

cell membrane = conditions: parent complex without peptide; as reported previously; cited from earlier work
Procedure: Uptake of the Os(II) bis-octaarginine conjugate was studied in live A549 lung carcinoma and a non-cancerous CHO cell line. […] The conjugate remained as impermeable to the cell membrane as the parent Os(II) complex at 30 μM/24 h and 100 μM/24 h (Figure S12).

A549 cells [2] = assay: Confocal laser scanning microscopy uptake study in live A549 cells; type: cell-based; conditions: CLSM; for Cellular uptake / membrane permeation: live A549 cells, 24 h, 37 °C
Procedure: (§1) Two cell lines were studied: an adherent mammalian cell line, Chinese hamster ovarian (CHO–K1), and a lung carcinoma cancer cell line (A549). Dulbecco’s modified Eagle’s medium (DMEM)/Hams F-12 was used for CHO cells and DMEM for A549 cells. Both media were supplemented with 10% FBS and 1% penicillin–streptomycin. The cells were grown at 37 °C with 5% CO2 and sub-cultured at 90% confluency.
(§2) Uptake studies were carried out for A549 and CHO cell lines. Cells were seeded at 1.5 × 10^5 cells in 35 mm glass-bottom culture dishes (Ibidi, Germany). Cells were allowed to grow for 24 h at 37 °C with 5% CO2. […] The dye/media solution was removed, and cells were washed twice with supplemented phosphate-buffered saline (PBS, 1.1 mM MgCl2 and 0.9 mM CaCl2). Cells were directly imaged using a Leica TSP DMi8 confocal microscope (63× oil immersion objective lens unless stated otherwise) with a heated stage at 37 °C.
(§3) [Os-(Rn)2]^x+ (n = 4 and 8; x = 10^+ and 18^+) was excited using a 490 nm white light laser, and the emission range was set to be between 650 and 800 nm. DRAQ7, a nuclear staining dye, was added (3 μM) to distinguish intact live cells from permeabilized/dead cells. The 633 nm laser was used to excite DRAQ7, and emission was collected between 635 and 750 nm. For co-localization studies, MitoTracker Deep Red (100 nM) and LysoTracker Green (50 nM) were used to selectively stain mitochondria and lysosomes, respectively. MitoTracker Deep Red was excited at 644 nm and emission was collected between 655 and 720 nm, and LysoTracker Green was excited at 504 nm and emission was collected at 511 nm.

CHO cells [3] = assay: Confocal laser scanning microscopy uptake study in live CHO cells; type: cell-based, Chinese hamster; conditions: CLSM; for Cellular uptake / membrane permeation: live CHO cells, 24 h, 37 °C
Procedure: as §1, §2, §3

HPAC spheroids [4] = assay: 3D spheroid viability, Alamar Blue; type: cell-based, human; conditions: 100 μM, 24 and 48 h, relative to untreated controls, n=2
Procedure: The 3D spheroid viability was evaluated using Alamar Blue. Briefly, 2.5 × 10^3 cells were seeded in each well of a 96-well round-bottom plate pre-coated with poly-Hema. The cells were allowed to grow and form spheroids for 72 h. The spheroids were then treated with [Os-(R4)2]^10+ at 100 μM for 24 and 48 h. The Alamar Blue reagent at a concentration of 10% was added to each well and incubated for 5 h at 37 °C. Fluorescence was measured at 535/590 excitation/emission wavelengths on a plate reader (Biotek) using Gen4 software. Background fluorescence was measured by using a blank consisting of medium only. Percentage viability was calculated relative to untreated controls.

A549 cells [5] = assay: Phototoxicity under continuous 490 nm irradiation with DRAQ7; type: cell-based; conditions: A549 cells pretreated 30 μM/24 h, DRAQ7, continuous 490 nm irradiation 0.84 μW/cm^2, 3 h
Procedure: DRAQ7 was added to live A549 cells treated with [Os-(R4)2]^10+ (30 μM/24 h). A group of cells were selected for continuous irradiation using 490 nm excitation (0.84 μW/cm^2). Emission was collected between 650 and 800 nm for [Os-(R4)2]^10+. The 633 nm laser was used to excite DRAQ7, and emission was collected between 635 and 750 nm. This was repeated for an untreated control sample exposed to continuous irradiation and stained with DRAQ7.

A549 cells [6] = assay: DRAQ7 co-staining for damaged/dead cells, A549; type: cell-based
Procedure: (§4) Uptake studies were carried out for A549 and CHO cell lines. Cells were seeded at 1.5 × 10^5 cells in 35 mm glass-bottom culture dishes (Ibidi, Germany). Cells were allowed to grow for 24 h at 37 °C with 5% CO2. The growth medium was removed, and a specific concentration of [Os-(Rn)2]^x+ (n = 4 and 8; x = 10^+ and 18^+) was added and allowed to incubate for 24 and 48 h at 37 °C with 5% CO2 in the dark. The dye/media solution was removed, and cells were washed twice with supplemented phosphate-buffered saline (PBS, 1.1 mM MgCl2 and 0.9 mM CaCl2). Cells were directly imaged using a Leica TSP DMi8 confocal microscope (63× oil immersion objective lens unless stated otherwise) with a heated stage at 37 °C.
as §3

CHO cells [7] = assay: DRAQ7 co-staining for damaged/dead cells, CHO; type: cell-based, Chinese hamster; conditions: 30 μM, 24 h
Procedure: as §4, §3

SMILES	Spheroid penetration / accumulation (HPAC spheroids [1])	Cell membrane permeability (cell membrane)	Cellular uptake / membrane permeation (A549 cells [2]; 100 μM)	Cellular uptake / membrane permeation (CHO cells [3]; 100 μM)	Spheroid viability (HPAC spheroids [4])	Staining at the center of the spheroid, at 72 ± 5 μm (HPAC spheroids [1]; 30 μM/24 h)	Spheroid penetration (HPAC spheroids [1]; 30 μM/24 h, 3D reconstruction depth coding)	Spheroid penetration (HPAC spheroids [1]; 100 μM/24 h)	Photo-induced toxicity (A549 cells [5])	Cell viability by DRAQ7 co-staining (A549 cells [6]; 30 μM, 24 h and 48 h)	Cytotoxicity by DRAQ7 co-staining (A549 cells [6]; 100 μM, 48 h)	Cell death by DRAQ7 co-staining (A549 cells [6]; 100 μM/24 h)	Cellular damage by DRAQ7 co-staining (CHO cells [7])	Cell permeation at 4 °C (A549 cells [2]; A549 cells, 4 °C, 30 μM/24 h)	Cellular uptake / membrane permeation (A549 cells [2]; 30 μM, dark, exc 490 nm, em 650-800 nm)	Cell permeation (CHO cells [3]; CHO cells, 30 μM/24 h)	Cellular uptake / membrane permeation (CHO cells [3]; 30 μM, dark)
O=C(O)c1ccc(-c2cc(-c3ccccn3)nc(-c3ccccn3)c2)cc1.O=C(O)c1ccc(-c2cc(-c3ccccn3)nc(-c3ccccn3)c2)cc1.[Os+2] [[Os(tpybenzCOOH)2]^2+, Os(II) [bis-(4′-(4-carboxyphenyl)-2,2′:6′,2″-terpyridine)]]	no spheroid penetration or accumulation was observed	cell membrane impermeable	completely impermeable	completely impermeable	–	–	–	–	–	–	–	–	–	–	–	–	–
N=C(N)NCCC[C@@H](NC(=O)[C@@H](CCCNC(=N)N)NC(=O)[C@@H](CCCNC(=N)N)NC(=O)[C@@H](CCCNC(=N)N)NC(=O)CCCCCNC(=O)c1ccc(-c2cc(-c3ccccn3)nc(-c3ccccn3)c2)cc1)C(N)=O [[Os-(R4)2]^10+] ({X1-Ahx}-[dR][dR][dR][dR]-NH2)	throughout cell layers and deep into the spheroid core	–	–	–	no evidence of toxicity	not observed	spheroid penetration was evident	extensive probe penetration and distribution to the core of the spheroid	non-photocytotoxic	remained viable	modest cytotoxic effects	no cell death was induced	entry of DRAQ7 (blue) in several cell nuclei	inhibited	rapidly and efficiently internalized	inhibited	rapidly and efficiently internalized
